According to patent US10071086B2, “1H-pyrazolo[3,4-b]pyridines and therapeutic uses thereof” (Samumed, LLC, priority 2012, dated 2018):

Test system: Wnt pathway
Test: Wnt activity reporter assay (SP5 promoter-luciferase in SW480 cells)
Assay type: cell-based
Settings: Homo sapiens, SP5 promoter firefly luciferase reporter, read-out: Wnt inhibition
Text: The above synthesized compounds were screened using the assay procedure for Wnt activity described below.
Reporter cell lines can be generated by stably transducing cells of cancer cell lines (e.g., colon cancer) with a lentiviral construct that include a wnt-responsive promoter driving expression of the firefly luciferase gene.
Lentiviral constructs can be made in which the SP5 promoter, a promoter having eight TCF/LEF binding sites derived from the SP5 promoter, is linked upstream of the firefly luciferase gene. The lentiviral constructs can also include a hygromycin resistance gene as a selectable marker. The SP5 promoter construct can be used to transduce SW480 cells, a colon cancer cell line having a mutated APC gene that generates a truncated APC protein, leading to de-regulated accumulation of β-catenin.
Cultured SW480 cells bearing a reporter construct can be distributed at approximately 10,000 cells per well into 96 well or 384 well plates. Compounds from a small molecule compound library can then be added to the wells in half-log dilutions using a ten micromolar top concentration. A series of control wells for each cell type receive only buffer and compound solvent. Twenty-four to forty hours after the addition of compound, reporter activity for luciferase can be assayed, for example, by addition of the BrightGlo luminescence reagent (Promega) and the Victor3 plate reader (Perkin Elmer). Readings can be normalized to DMSO only treated cells, and normalized activities can then be used in the IC50 calculations.

Compared with `O=C(Nc1cncc(-c2cnc3[nH]nc(-c4nc5c(-c6cccc(F)c6)cncc5[nH]4)c3c2)c1)C(F)(F)F` [Compound 1, 2,2,2-Trifluoro-N-(5-(3-(7-(3-fluorophenyl)-3H-imidazo[4,5-c]pyridin-2-yl)-1H-pyrazolo[3,4-b]pyridin-5-yl)pyridin-3-yl)acetamide], `O=C(Nc1cncc(-c2cnc3[nH]nc(-c4nc5c(-c6cccc(F)c6)cncc5[nH]4)c3c2)c1)C1CC1` [Compound 114, N-(5-(3-(7-(3-Fluorophenyl)-3H-imidazo[4,5-c]pyridin-2-yl)-1H-pyrazolo[3,4-b]pyridin-5-yl)pyridin-3-yl)cyclopropanecarboxamide] is 1.8-fold higher in IC50: 6 nM for the first, 11 nM for the second. The first is the more potent here.

Going from `CN1CCN(c2cncc(-c3cnc4[nH]nc(-c5nc6c(-c7cccc(F)c7)cncc6[nH]5)c4c3)c2)CC1` [Compound 4, 3-(7-(3-Fluorophenyl)-3H-imidazo[4,5-c]pyridin-2-yl)-5-(5-(4-methylpiperazin-1-yl)pyridin-3-yl)-1H-pyrazolo[3,4-b]pyridine] to `Fc1cccc(-c2cncc3[nH]c(-c4n[nH]c5ncc(-c6cncc(CN7CCCC7)c6)cc45)nc23)c1` [Compound 27, 3-(7-(3-Fluorophenyl)-3H-imidazo[4,5-c]pyridin-2-yl)-5-(5-(pyrrolidin-1-ylmethyl)pyridin-3-yl)-1H-pyrazolo[3,4-b]pyridine], the IC50 rises from 333 nM to 1780 nM (5.3-fold).

Compared with `CN(C)CCNc1cncc(-c2cnc3[nH]nc(-c4nc5c(-c6cccc(F)c6)cncc5[nH]4)c3c2)c1` [Compound 6, N1-(5-(3-(7-(3-Fluorophenyl)-3H-imidazo[4,5-c]pyridin-2-yl)-1H-pyrazolo[3,4-b]pyridin-5-yl)pyridin-3-yl)-N2,N2-dimethylethane-1,2-diamine], `CN(C)Cc1cncc(-c2cnc3[nH]nc(-c4nc5c(-c6cncc(F)c6)cncc5[nH]4)c3c2)c1` [Compound 20, 1-(5-(3-(7-(5-Fluoropyridin-3-yl)-3H-imidazo[4,5-c]pyridin-2-yl)-1H-pyrazolo[3,4-b]pyridin-5-yl)pyridin-3-yl)-N,N-dimethylmethanamine] is 18-fold higher in IC50: 550 nM for the first, 10000 nM for the second. The first is the more potent here.

`CCNC(=O)c1cncc2[nH]c(-c3n[nH]c4ncc(-c5cccnc5)cc34)nc12` [Compound 8, N-Ethyl-2-(5-(pyridin-3-yl)-1H-pyrazolo[3,4-b]pyridin-3-yl)-3H-imidazo[4,5-c]pyridine-7-carboxamide] and `Fc1cncc(-c2cncc3[nH]c(-c4n[nH]c5ncc(-c6cccnc6)cc45)nc23)c1` [Compound 23, 3-(7-(5-Fluoropyridin-3-yl)-3H-imidazo[4,5-c]pyridin-2-yl)-5-(pyridin-3-yl)-1H-pyrazolo[3,4-b]pyridine] are within 1.5-fold of each other in IC50: 8250 nM for the first, 10000 nM for the second.

`Fc1cc(-c2cncc3[nH]c(-c4n[nH]c5ncc(-c6cccnc6)cc45)nc23)cc(N2CCOCC2)c1` [Compound 13, 4-(3-Fluoro-5-(2-(5-(pyridin-3-yl)-1H-pyrazolo[3,4-b]pyridin-3-yl)-3H-imidazo[4,5-c]pyridin-7-yl)phenyl)morpholine] and `Fc1cc(-c2cncc3[nH]c(-c4n[nH]c5ncc(-c6cccnc6)cc45)nc23)cc(N2CCNCC2)c1` [Compound 21, 3-(7-(3-Fluoro-5-(piperazin-1-yl)phenyl)-3H-imidazo[4,5-c]pyridin-2-yl)-5-(pyridin-3-yl)-1H-pyrazolo[3,4-b]pyridine] are within 1.5-fold of each other in IC50: 172 nM for the first, 167 nM for the second.

First: CC(C)N1CCN(c2cc(F)cc(-c3cncc4[nH]c(-c5n[nH]c6ncc(-c7cccnc7)cc56)nc34)c2)CC1 [Compound 15, 3-(7-(3-Fluoro-5-(4-isopropylpiperazin-1-yl)phenyl)-3H-imidazo[4,5-c]pyridin-2-yl)-5-(pyridin-3-yl)-1H-pyrazolo[3,4-b]pyridine]
Second: CC1CCN(c2cc(F)cc(-c3cncc4[nH]c(-c5n[nH]c6ncc(-c7cccnc7)cc56)nc34)c2)CC1 [Compound 19, 3-(7-(3-Fluoro-5-(4-methylpiperidin-1-yl)phenyl)-3H-imidazo[4,5-c]pyridin-2-yl)-5-(pyridin-3-yl)-1H-pyrazolo[3,4-b]pyridine]
The IC50 of the first is 1.5-fold lower: 326 nM for the first, 499 nM for the second.

Going from `Fc1cc(CN2CCCC2)cc(-c2cncc3[nH]c(-c4n[nH]c5ncc(-c6cccnc6)cc45)nc23)c1` [Compound 16, 3-(7-(3-Fluoro-5-(pyrrolidin-1-ylmethyl)phenyl)-3H-imidazo[4,5-c]pyridin-2-yl)-5-(pyridin-3-yl)-1H-pyrazolo[3,4-b]pyridine] to `Fc1cccc(-c2cncc3[nH]c(-c4n[nH]c5ncc(-c6cncc(CN7CCCCC7)c6)cc45)nc23)c1` [Compound 28, 3-(7-(3-Fluorophenyl)-3H-imidazo[4,5-c]pyridin-2-yl)-5-(5-(piperidin-1-ylmethyl)pyridin-3-yl)-1H-pyrazolo[3,4-b]pyridine], the IC50 rises from 384 nM to 720 nM (1.9-fold).

First: CC(C)N(Cc1cc(F)cc(-c2cncc3[nH]c(-c4n[nH]c5ncc(-c6cccnc6)cc45)nc23)c1)C(C)C [Compound 17, N-(3-Fluoro-5-(2-(5-(pyridin-3-yl)-1H-pyrazolo[3,4-b]pyridin-3-yl)-3H-imidazo[4,5-c]pyridin-7-yl)benzyl)-N-isopropylpropan-2-amine]
Second: CN(C)Cc1cncc(-c2cnc3[nH]nc(-c4nc5c(-c6cc(F)cc(CNS(C)(=O)=O)c6)cncc5[nH]4)c3c2)c1 [Compound 22, N-(3-(2-(5-(5-((Dimethylamino)methyl)pyridin-3-yl)-1H-pyrazolo[3,4-b]pyridin-3-yl)-3H-imidazo[4,5-c]pyridin-7-yl)-5-fluorobenzyl)methanesulfonamide]
The IC50 of the first is 17-fold higher: 550 nM for the first, 32 nM for the second. The second is the more potent here.

Compared with `CN(C)Cc1cncc(-c2cnc3[nH]nc(-c4nc5c(-c6cc(F)cc(N7CCOCC7)c6)cncc5[nH]4)c3c2)c1` [Compound 24, 1-(5-(3-(7-(3-Fluoro-5-morpholinophenyl)-3H-imidazo[4,5-c]pyridin-2-yl)-1H-pyrazolo[3,4-b]pyridin-5-yl)pyridin-3-yl)-N,N-dimethylmethanamine], `CN(C)Cc1cncc(-c2cnc3[nH]nc(-c4nc5c(-c6cncc(C(F)(F)F)c6)cncc5[nH]4)c3c2)c1` [Compound 25, N,N-Dimethyl-1-(5-(3-(7-(5-(trifluoromethyl)pyridin-3-yl)-3H-imidazo[4,5-c]pyridin-2-yl)-1H-pyrazolo[3,4-b]pyridin-5-yl)pyridin-3-yl)methanamine] is 480-fold higher in IC50: 21 nM for the first, 10000 nM for the second. The first is the more potent here.

Going from `O=C(Cc1ccccc1)Nc1cncc(-c2cnc3[nH]nc(-c4nc5c(-c6ccc(F)cc6)cncc5[nH]4)c3c2)c1` [Compound 128, N-(5-(3-(7-(4-Fluorophenyl)-3H-imidazo[4,5-c]pyridin-2-yl)-1H-pyrazolo[3,4-b]pyridin-5-yl)pyridin-3-yl)-2-phenylacetamide] to `CCCC(=O)Nc1cncc(-c2cnc3[nH]nc(-c4nc5c(-c6ccccc6F)cncc5[nH]4)c3c2)c1` [Compound 158, N-(5-(3-(7-(2-Fluorophenyl)-3H-imidazo[4,5-c]pyridin-2-yl)-1H-pyrazolo[3,4-b]pyridin-5-yl)pyridin-3-yl)butyramide], the IC50 falls from 90 nM to 8 nM (11-fold). The second is the more potent here.

`Fc1ccc(-c2cncc3[nH]c(-c4n[nH]c5ncc(-c6cncc(CNCC7CCCC7)c6)cc45)nc23)cc1` [Compound 142, 1-Cyclopentyl-N-((5-(3-(7-(4-fluorophenyl)-3H-imidazo[4,5-c]pyridin-2-yl)-1H-pyrazolo[3,4-b]pyridin-5-yl)pyridin-3-yl)methyl)methanamine] showed an IC50 of 645 nM.
